Key:
IDH1-R132H = biological target: T1, IDH1-R132H (Homo sapiens, UniProt O75874, R132H); experiment: Fluorescent determination of IDH1-R132H cell activity (2-HG in U87MGR132H cells); format: cell-based; conditions: 2-HG inhibition in U87MGR132H cells transfected with IDH1-R132H mutant plasmid
T1 construct: expressed in transfected cells; host or cells: U87MG cells (U87MGR132H)

IDH2-R140Q = biological target: T2, IDH2-R140Q (Homo sapiens, UniProt P48735, R140Q); experiment: Fluorescent determination of IDH2-R140Q cell activity (2-HG in U87MGR140Q cells); format: cell-based; conditions: 72 hours incubation, read-out: IC50 (2-HG inhibition)
T2 construct: expressed in transfected cells
T2 sequence (P48735 40-452 R140Q): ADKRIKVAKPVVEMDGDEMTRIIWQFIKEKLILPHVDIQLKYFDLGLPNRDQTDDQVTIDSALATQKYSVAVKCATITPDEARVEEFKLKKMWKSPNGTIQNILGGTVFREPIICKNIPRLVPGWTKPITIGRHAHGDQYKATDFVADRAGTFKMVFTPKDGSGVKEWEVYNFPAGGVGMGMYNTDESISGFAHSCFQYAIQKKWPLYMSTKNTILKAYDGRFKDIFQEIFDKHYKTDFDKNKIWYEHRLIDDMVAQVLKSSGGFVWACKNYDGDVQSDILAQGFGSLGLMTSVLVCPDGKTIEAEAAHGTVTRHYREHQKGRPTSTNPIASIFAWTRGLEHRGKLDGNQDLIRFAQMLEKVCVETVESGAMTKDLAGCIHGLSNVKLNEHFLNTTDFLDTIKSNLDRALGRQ
Protocol: Enzyme reaction solution: 1 mM nicotinamide adenine dinucleotide (NAD), 0.6 ng/μL D-2-hydroxyglutarate dehydrogenase (D2HGDH), 0.8 U/mL lipoamidase dehydrogenase (Diaphorase) and 60 μM Resazurin in 40 mM Tris.HCl pH 8.8 assay buffer.
Standard curve stock solution: The standard of 2-HG sodium salt was serially diluted in serum-free MEM medium to make a standard curve stock solution.
100 μL of U87MGR140Q cells were seeded at a density of 6×10^4/mL per well in a 96-well plate a.
From each well of 96-well plate a, 50 μL of the culture supernatant was transferred to the corresponding well of 96-well plate b; at the same time, 50 μL of standard curve stocking solution was added to other wells of 96-well plate b. Then 10 μl of 360 mM hydrochloric acid was added to all the wells. After shaking and mixing, the plate was placed on ice for 10 minutes, and then 10 μl of 420 mM Tris-base was added. After shaking and mixing, the plate was placed on ice for additional 5 minutes. Then the plate was centrifuged at 2500 rpm for 10 minutes.
After centrifuging, from each well of 96-well plate b, 20 μL of the supernatant was transferred to 96-well plate c. An additional 80 μL of the enzyme reaction solution was added to each well and incubated at 25° C. for 90 minutes.
A standard curve of the fluorescence value vs. the corresponding 2-HG concentration was made, and the 2-HG concentration corresponding to each concentration point of the compound was calculated, then the inhibition ratio was calculated, and the data was analyzed using XLfit5 (ID Business Solutions Limited) software to obtain the IC50 value.
The inhibition ratio was calculated as follows: Inhibition Ratio (IH %)=(1-2-HG concentration of test compound treated cells/2-HG concentration of control cells)×100%.

T1 sequence (O75874 whole entry R132H): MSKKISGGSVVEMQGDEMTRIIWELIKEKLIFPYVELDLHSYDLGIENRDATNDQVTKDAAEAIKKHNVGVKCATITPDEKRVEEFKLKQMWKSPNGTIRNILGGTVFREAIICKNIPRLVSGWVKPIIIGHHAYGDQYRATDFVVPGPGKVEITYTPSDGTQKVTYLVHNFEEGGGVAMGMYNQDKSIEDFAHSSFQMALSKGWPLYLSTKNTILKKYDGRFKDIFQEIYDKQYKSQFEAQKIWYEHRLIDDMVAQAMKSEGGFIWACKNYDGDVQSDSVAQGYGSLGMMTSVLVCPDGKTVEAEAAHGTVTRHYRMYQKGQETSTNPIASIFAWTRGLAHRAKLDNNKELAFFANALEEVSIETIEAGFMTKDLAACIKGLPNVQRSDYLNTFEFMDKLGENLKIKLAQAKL

Row | Compound | IC50 (IDH1-R132H) [nM] | IC50 (IDH2-R140Q) [nM]
1 | C[C@@H](Nc1nc(NC(C)(C)C)nc(C2=CC(O)CCC2)n1)C(F)(F)F (mixture of isomers) [Compound 155] | 2240 | 319
2 | C[C@@H](Nc1nc(NCC(F)(F)F)nc(C2=C(F)C(O)C(F)(F)CC2)n1)C(F)(F)F (mixture of isomers) [Compound 245] | 1500 | –
3 | C[C@@H](Nc1nc(N[C@H]2CCOC2)nc(C2=CC(F)(F)CCC2)n1)C(F)(F)F [Compound 139] | – | 2510
4 | C[C@@H](Nc1nc(NC2COC2)nc(C2=CC(O)CCC2)n1)C(F)(F)F (some centres unmarked) [Compound 178] | – | 934
5 | C[C@@H](Nc1nc(N[C@@H]2CCOC2)nc(C2=CC(O)CCC2)n1)C(F)(F)F (some centres unmarked) [Compound 179] | – | 598
6 | C[C@@H](Nc1nc(N[C@H]2CCOC2)nc(C2=CC(O)CCC2)n1)C(F)(F)F (some centres unmarked) [Compound 180] | – | 531
7 | C[C@@H](Nc1nc(N[C@@H]2CCC[C@@H]2O)nc(C2=CC(O)CCC2)n1)C(F)(F)F (some centres unmarked) [Compound 182] | – | 1230
8 | C[C@@H](Nc1nc(N[C@H](C)C(F)(F)F)nc(C2=CCCCC2)n1)C(F)(F)F [Compound 186, 6-(Cyclohex-1-en-1-yl)-N^2,N^4-bis((R)-1,1,1-trifluoropropan-2-yl)-1,3,5-triazine-2,4-diamine] | – | 677
9 | C1=C(c2nc(NCC3CC3)nc(NCC3CC3)n2)CCCC1 [Compound 187] | – | 742
10 | C[C@@H](Nc1nc(NCC(C)(C)O)nc(C2=CCCCC2)n1)C(F)(F)F [Compound 188] | – | 5020
11 | CC(C)Nc1nc(N[C@H](C)C(F)(F)F)nc(C2=CCCCC2)n1 [Compound 190, (R)-6-(cyclohex-1-en-1-yl)-N^2-isopropyl-N^4-(1,1,1-trifluoropropan-2-yl)-1,3,5-triazine-2,4-diamine] | – | 413
12 | C[C@@H](Nc1nc(N[C@H](C)C2CC2)nc(C2=CCCCC2)n1)C1CC1 [Compound 191] | – | 999
13 | C[C@@H](Nc1nc(NCC2CC2)nc(C2=CCCCC2)n1)C(F)(F)F [Compound 192] | – | 314

Other lines, results leading:

Row | IC50 (IDH1-R132H) [nM] | IC50 (IDH2-R140Q) [nM] | Compound
14 | 234 | 99 | C[C@@H](Nc1nc(N[C@H](C)C(F)(F)F)nc(C2=C(F)C(O)CCCC2)n1)C(F)(F)F (mixture of isomers) [Compound 21]
15 | 769 | 197 | [2H]C1(O)CCCCC(c2nc(NC3CC(F)(F)C3)nc(N[C@H](C)C(F)(F)F)n2)=C1F (mixture of isomers) [Compound 24]
16 | 938 | 553 | C[C@@H](Nc1nc(N[C@H](C)C(F)(F)F)nc(C2=C(F)C(O)C(Cl)CC2)n1)C(F)(F)F (mixture of isomers) [Compound 99, 3-(4,6-Bis(((R)-1,1,1-trifluoropropan-2-yl)amino)-1,3,5-triazin-2-yl)-6-chloro-2-fluoro-cyclohex-2-en-1-ol]
17 | 4350 | 141 | C[C@H](Nc1nc(N[C@H](C)C(F)(F)F)nc(C2=C(F)C(O)CCC2)n1)c1ccccc1 (mixture of isomers) [Compound 157]
18 | 1520 | 278 | C[C@@H](Nc1nc(N[C@H](C)C(F)(F)F)nc(C2=C(F)C(O)CCC2)n1)C1CC1 (mixture of isomers) [Compound 158]
19 | 2720 | 205 | C[C@@H](Nc1nc(NC2CC3(CCC3)C2)nc(C2=C(F)C(O)CCC2)n1)C(F)(F)F (mixture of isomers) [Compound 159]
20 | 809 | 162 | CC(C)[C@@H](C)Nc1nc(N[C@H](C)C(F)(F)F)nc(C2=C(F)C(O)CCC2)n1 (mixture of isomers) [Compound 163]
21 | 3170 | 327 | CC(C)[C@H](C)Nc1nc(N[C@H](C)C(F)(F)F)nc(C2=C(F)C(O)CCC2)n1 (mixture of isomers) [Compound 167]
22 | – | 507 | COC[C@H](C)Nc1nc(N[C@H](C)C(F)(F)F)nc(C2=CC(O)CCC2)n1 (some centres unmarked) [Compound 183]
23 | – | 1410 | CC(C)Nc1nc(N[C@H](C)C(F)(F)F)nc(C2=CCCC2)n1 [Compound 189]
